According to paper PMC7168933, “Design, Synthesis and Biochemical Evaluation of Novel Ethanoanthracenes and Related Compounds to Target Burkitt’s Lymphoma” (Pharmaceuticals, 2020):

Tests used:
DG-75 cells = assay: Effect of NAC antioxidant pre-treatment on viability of DG-75 cells (alamarBlue); format: cell-based; settings: Homo sapiens, 1 µM compound, 48 h, no NAC, read-out: viable DG-75 cells without NAC
Procedure: Cell proliferation of DG-75 cells was determined with an alamarBlue assay (seeding density 2 × 10^4 cells/mL per well for 96-well plates), with vehicle control ethanol 1% (v/v). Cells were retained for 24 h and then pre-treated with NAC (5 mM) for 1 h, followed by compounds 15, 16b and 16c at 1 μM for 48 h. Cell viability was measured by alamarBlue assay (mean of three independent experiments).
N-Acetylcysteine (Sigma) was dissolved in sterile water (100 mM). Fresh solutions were prepared for each experiment. A 96 well plate was seeded with 2 × 10^4 cells/well for DG-75 cells. After 23 h, the DG-75 cells were then pre-treated with NAC (5 mM) for 1 h before compound treatment. The wells were then treated with the desired drug concentration (1 µM) for a predetermined time frame (48 h). After treatment and incubation, each well was treated with 20 µL of alamarBlue (37 °C) and the plate was incubated in the dark at 37 °C for 4–6 h. Fluorescence of the 96 well plates was then recorded at 590 nm (excitation 544 nm), as described for ‘alamarBlue viability assay’ (above). The percentage of viable cells remaining with NAC pre-treatment was compared to the percentage of viable cells remaining without NAC pre-treatment in order to determine the implication of ROS in the mechanism of cell death induced.

[1] = test system: MUTU-1 Burkitt lymphoma cell line (EBV+); assay: cells; settings: Mutu-1, 24 h; for IC50: read-out: IC50 MUTU-I 24 h; for viability at 1 µM: read-out: MUTU-1 Cell Viability % 1 μM, 1 μM, 24 h; for viability at 10 µM: read-out: MUTU-1 Cell Viability % 10 μM, 10 μM, 24 h
[2] = test system: DG-75 Burkitt lymphoma cell line (EBV−, chemoresistant); assay: cells; settings: Homo sapiens, DG-75, 48 h; for viability at 1 µM: read-out: DG-75 Cell Viability % 1 μM, 1 μM, 48 h; for viability at 10 µM: read-out: DG-75 Cell Viability % 10 μM, 10 μM, 48 h; for IC50: read-out: IC50 DG-75 48 h
DG-75 cell line = assay: Lactate dehydrogenase (LDH) release cytotoxicity assay in DG-75 cells; format: cell-based; settings: percentage of total LDH release
Procedure: (§1) The CytoTox 96 non-radioactive cytotoxicity assay (Promega Corporation; 2800 Woods Hollow Road, Madison, WI, USA) was used to determine the cyctotoxicity of selected compounds. BL cells were incubated for 24 hr and then treated with the selected compounds (at 10 μM concentration) 15, 16b and 16c as in the cell viability assay. After 24 or 48 h as appropriate, the lysis solution (10X), (20 μL) was added. The cells were incubated for a further 1 h to ensure complete death. The supernatant (50 μL) was removed and transferred to a new 96-well plate. “Substrate mix″ (50 μL) was added and the plate was retained in the dark at RT for 30 min. “Stop solution″ (50 μL) was added to each well and the absorbance was recorded at 490 nm with a Dynatech MR5000 plate reader and the cell death was calculated.

[3] = test system: MUTU-1 Burkitt's lymphoma cell line; assay: FITC Annexin V/PI FACS analysis of apoptosis in MUTU-I cells; format: cell-based; settings: 24 h
Procedure: (§2) BL cells DG-75 and MUTU-1 (750,000) were treated with the specified concentration of the selected compound and incubated for 24 h (MUTU-1) or 48 h (DG-75) with taxol as the positive control. Samples were harvested by centrifugation and the pellets were rinsed with 0.5 mL of Ca^2+ Annexin V binding buffer (0.1 M HEPES, pH 7.4; 1.4 M NaCl; 25 mM CaCl2) each and pelleted again by centrifugation. Supernatants were decanted and the pellets were suspended again in 50 µL FITC Annexin V (diluted 1:33 in Ca^2+ Annexin V binding buffer), the samples were then placed on ice and incubated for 10 min in the dark. After the incubation period 0.5 mL of Ca^2+ Annexin V binding buffer was added and samples were pelleted by centrifugation. The supernatant was decanted and the pellet was suspended in PI solution (500 µL; 0.5 µg/mL). After 1 h, the samples were recorded using a CyAn ADP flow cytometer (Beckman Coulter Inc., Brea, CA, USA). 10,000 cells were analysed with the Flowjo software package. Taxol was used as a positive control for cell death.

[4] = test system: DG-75 Burkitt's lymphoma cell line; assay: FITC Annexin V/PI FACS analysis of apoptosis in DG-75 cells; format: cell-based; settings: 48 h
Procedure: as §2

[5] = Viability of peripheral blood mononuclear cells (alamarBlue); format: cell-based; settings: human, peripheral blood mononuclear cells (PBMCs); for viability at 24 h, 0.5 µM: read-out: viable PBMCs at 0.5 µM; for viability at 24 h, 1 µM: read-out: viable PBMCs at 1 µM
Procedure: BL cells were seeded in a 96-well plate (1–5 × 10^4 cells per 200 µL in well). Cells were treated with the desired drug concentration for a predetermined time frame and incubated as required. alamarBlue (20 µL) was added to each well and the cells were incubated at 37 °C in the dark for 4 h. Plates were then recorded on a fluorescence plate reader (SpectraMax Gemini, Molecular Devices) at 544 nm (excitement) and 590 nm (emission). Experiments were performed in triplicate using controls of reagent, medium and vehicle (100% viability). Taxol (10 μM) was used as the control drug (90% cytotoxicity) for both cell lines. The experiments were performed in triplicate and the mean value for three independent experiments was calculated.
Blood was obtained from healthy donors (n = 2) after informed consent was received. The blood was then placed into a 50 mL falcon tube and diluted with phosphate-buffered saline (PBS), 1:2. The blood was separated into red blood cells, white blood cell ring and serum using LymphoPrep. The blood was slowly added to Ficoll pague plus (20 mL). The tubes containing the blood were then centrifuged for 30 min at 1700 g. Following transfer of the white blood cell ring to a new 50 mL tube, the volume was adjusted to 50 mL. The samples were again centrifuged for 10 min at 1700 g. The, supernatant liquid was removed; and this step was repeated. The resultant pellet was then resuspended in 10 mL of complete Iscove’s Modified Dulbecco’s (IMDM) media (10% FBS, 0.1% Ciprofloxacin (10 mg/mL)) for use in the cell viability experiments.

[6] = test system: DG-75 Burkitt lymphoma cell line (EBV−, chemoresistant); settings: 1 μM, 48 h
[7] = test system: MUTU-1 Burkitt lymphoma cell line (EBV+); settings: 1 μM, 24 h
MUTU-I cell line = assay: Lactate dehydrogenase (LDH) release cytotoxicity assay in MUTU-I cells; format: cell-based; settings: percentage of total LDH release
Procedure: as §1

SMILES | viability at 1 µM (DG-75 cells) | IC50 [1] | viability at 1 µM [1] | viability at 10 µM [1] | viability at 1 µM [2] | viability at 10 µM [2] | IC50 [2] | LDH release (cytotoxicity) in DG-75 at 10 µM (DG-75 cell line) | apoptosis in MUTU-I at 0.5 µM ([3]; 0.5 µM) | apoptosis in DG-75 at 1 µM [4] | viability at 24 h, 0.5 µM [5] | viability at 24 h, 1 µM [5] | apoptosis in MUTU-I at 0.2 µM ([3]; 0.2 µM) | DG-75 Cell Viability % 1 μM [6] | apoptosis in DG-75 at 10 µM ([4]; 10 µM) | MUTU-1 Cell Viability % 1 μM [7] | apoptosis in MUTU-I at all concentrations ([3]; all concentrations (0.2–10 µM)) | LDH release (cytotoxicity) in MUTU-I at 1 µM (MUTU-I cell line; 1 µM) | LDH release (cytotoxicity) in MUTU-I at 10 µM (MUTU-I cell line; 10 µM)
COc1ccc(N2C(=O)C3C4c5ccccc5C(/C=C/[N+](=O)[O-])(c5ccccc54)C3C2=O)cc1 (stereo not drawn) [Compound 16c, (E)-13-(4-Methoxyphenyl)-9-(2-nitrovinyl)-9,10-dihydro-9,10-[3,4]epipyrroloanthracene-12,14-dione] | 6 to 23% | 200 nM | 0.19% | 1.1% | 28.4% | 2.1% | 560 nM | 25% | > 90% | 29% | ~99% | 72 to 81% |  |  |  |  |  |  | 
O=C1C2C3c4ccccc4C(/C=C/[N+](=O)[O-])(c4ccccc43)C2C(=O)N1CCCCCCN1C(=O)C2C3c4ccccc4C(/C=C/[N+](=O)[O-])(c4ccccc43)C2C1=O (stereo not drawn) [Compound 15, 13,13′-(Hexane-1,6-diyl)bis(9-((E)-2-nitrovinyl)-9,10-dihydro-9,10[3,4]epipyrroloanthracene-12,14-dione)] | 6 to 23% | 90 nM | < 5% | 2.1% | < 5% | 0% | 240 nM |  |  |  | ~99% | 72 to 81% | > 90% | 3.8% | 95% | 4.5% |  |  | 
O=C1C2C3c4ccccc4C(C=C[N+](=O)[O-])(c4ccccc43)C2C(=O)N1c1ccc(Cl)cc1 (stereo not drawn) [Compound 16b, (E)-13-(4-Chlorophenyl)-9-(2-nitrovinyl)-9,10-dihydro-9,10-[3,4]epipyrroloanthracene-12,14-dione] | 6 to 23% | 170 nM | 5% | 0.38% | < 6% | 0.52% | 450 nM |  |  | 61% | ~99% | 72 to 81% |  | 5.5% |  |  | over 80% | 5% | 2%
